Ends that are not written are not given here.
Columns and labels:
human neutrophils = experiment: Neutrophil chemotaxis in Modified Boyden 48-well Microchemotaxis Chambers; format: cell-based; settings: for maximal stimulation of neutrophil chemotaxis relative to thrombin or IL-8: FIG. 3 vs FIG. 1C
Protocol: Human neutrophils were isolated from blood of healthy volunteers, drawn into one-tenth volume of trisodium citrate. The neutrophils were isolated from the blood using established Ficoll-Hypaque (MONO POLYRESOLVING MEDIUM™) protocol, Kalmer et al. 1988, specifically incorporated herein by reference. The cells were washed in HBSS containing 20 mM HEPES, pH 7.4 (HHBSS), pelleted by centrifugation (600×g), and resuspended into HHBSS at the indicated density. Trypan blue exclusion assays indicated greater than 97% cell viability.
Freshly isolated human neutrophils (150,000 cells per 50 μl) were applied to wells of Modified Boyden 48-well Microchemotaxis Chambers (Neuro Probe, Cabin John, Md.) with pre-wet […], PVP-free polycarbonate membranes (Neuro Probe, Cabin John, Md.) (see Mansfield, et al. 1990, which is specifically incorporated herein by reference). The lower well in these chambers were filled with 27 μl of HHBSS solution containing indicated concentrations of substances to be tested. After loading, the chambers were incubated for 2 hours at 37° C. Membranes were removed, rinsed with HHBSS, fixed and stained using DIFF-QUIK® to visualize and quantitate cells that had migrated through the filters. For each assay condition, cells migrating through 4 wells were examined using a Nikon Microscope (at 400×). For each well, the total cells present in 6 random fields were counted and recorded. Each assay represents data from at least three analyses of the same type with neutrophils isolated from at least two individuals.
Freshly isolated human peripheral blood neutrophils were added to wells of Modified Boyden Microwell Chemotaxis Chambers and the number of cells migrating through the filters was determined as described in Materials and Methods. For each assay, cells migrating through 4 wells were examined, counted, and recorded (6 random fields per well) using a Nikon LabPhot Microscope (400×).
Human neutrophils were added to wells of Boyden Microwell Chambers and assayed for directed chemotaxis toward indicated concentrations of synthetic peptides representing the tethered ligand region of PART (SFLLRNPNDKYEPF—SEQ ID NO.: 7), or TRAP-508, the high-affinity receptor binding domain of human thrombin ([…]—SEQ ID NO.: 8).
Indicated concentrations of peptides representing residues 26-41 of the human (SEQ ID NO.: 1) (∇) or hamster (SEQ ID NO.: 2) (∘) PART receptor component were added to lower wells of Boyden Microwell Chambers and neutrophil chemotaxis toward the peptides was assayed as described above.

neutrophils = experiment: Superoxide generation by stimulated neutrophils (SOD-inhibitable ferricytochrome C reduction); format: cell-based, human; settings: for O2 released (superoxide generation): 2×10^6 neutrophils/ml, twenty minutes after addition
Protocol: Superoxide generation was determined by measuring the superoxide dismutase (SOD)-inhibitable reduction of ferricytochrome C (Thomas et al., 1992, incorporated herein by reference). Briefly, 2×10^6 neutrophils/ml were incubated with, ferricytochrome C (433 μg/ml) and glucose (1.1 mM) in phosphate buffered saline (PBS) at 37° C. for five minutes, in presence or absence of 1 μg/ml SOD. Twenty minutes after addition of NTP, IL-8, or PBS, aliquots were removed, cooled to 4° C., and filtered through […] particle separators (Amicon). The optical absorption of the filtrate was then read at 550 nm. The amount of O2 generated was calculated by the difference in absorbance of the samples with or without SOD, using a 15.5 millimolar extinction coefficient at 550 nm for cytochrome C reduction.

[1] = tested on: fibroblasts and other cells; settings: Van Obberghen-Schilling and Pouyssegur 1993; cited from earlier work
fibroblasts [2] = experiment: c-fos and other G-protein initiated signals in fibroblasts; format: cell-based; settings: compared with proteolytically active thrombin
Source text: Therefore, the PART activating peptide fragment was not sufficient to stimulate chemotaxis.

fibroblasts [3] = experiment: Parallel 125I-NTP-Y binding studies with fibroblasts
Source text: The chemotactic effects of NTP appeared to be mediated by interaction with specific NTP receptor binding sites on the surface of neutrophils.

[4] = tested on: NTP receptor on human neutrophils; experiment: 125I-NTP-Y saturation binding to neutrophils
Protocol: NTP was radiolabeled using IODO-GEN® (Pierce) catalyzed iodination (Fraker and Speck, 1978, specifically incorporated herein by reference). 5 mCi of Na^125I (Amersham, UK) was incubated in glass tubes coated with IODO-GEN® with 250 μg of HPLC-purified NTP-Y in 250 μl of Phosphate Buffered Saline (PBS), pH 7.2. After 7 minutes, the radiolabeled peptide was separated from free ^125Iodine by its adsorption to a C-18 SEP PAK® column, followed by elution with 100% acetonitrile. The eluted radioactive peptide was then dried under vacuum to remove acetonitrile, rehydrated with PBS, and stored as frozen aliquots (−20° C.) at a concentration of 100 μg/ml.
For saturation binding assays, […] were incubated at 37° C. with indicated concentrations of ^125I-NTP-Y in 100 μl of DV medium containing 20 mM HEPES buffer, pH 7.4, in 0.6 ml eppendorf tubes. The binding was terminated and ^125I-NTP-Y that was bound to cells was separated from free ^125I-NTP-Y by rapid filtration and rinsing (2× with 10 mls of 4° C. PBS) through Whatman GF/C filters, using a Millipore filtration apparatus. Radioactivity on filters was then counted in a gamma counter (Beckman Instruments, Inc., model Gamma 4000). Nonspecific binding of ^125I-NTP-Y was measured in the presence of a 500-fold molar excess of unlabeled peptide and was subtracted from total binding to determine the amount of specific (saturable) binding.
NTP was synthesized with an N-terminal tyrosine (YRRPESKATNATLDPR—SEQ ID NO.: 6), analyzed for chemotactic activity, and radiolabeled as described in methods. […] Specific binding was determined by subtracting the nonspecific binding of ^125I-NTP-Y (binding in the presence of 500-fold molar excess of unlabeled NTP-Y) from the total binding. Insert represents a Scatchard-like analysis of the binding isotherm using total radioactivity in the medium as a measure of free ligand. […]

IL-8: recombinant IL-8
EC50 (human neutrophils; FIG. 1, 2 hours at 37° C., read-out: concentration required for half-maximal stimulation of neutrophil chemotaxis): ~10 nM | O2 released (superoxide generation) (neutrophils; 400 nmolar IL-8): 102 ± 16 nmol

NTP: released N-terminal fragment peptide of PART; species (human or hamster) not stated at these places (RQPESEMTDATVNPR)
neutrophil chemotaxis (human neutrophils; NTP, Example 4): stimulated neutrophil chemotaxis | activity on fibroblasts and other cells [1]: no apparent activity | superoxide generation compared to IL-8 (neutrophils; 800 nM NTP vs 400 nmolar IL-8): negligible | O2 released (superoxide generation) (neutrophils; 800 nM NTP): 9 ± 0.9 nmol

RQPESEMTDA TVNPR (RQPESEMTDATVNPR) [SEQ ID NO.: 2, peptide representing residues 26-41 of the hamster PART receptor component]
maximal stimulation of neutrophil chemotaxis relative to thrombin or IL-8 (human neutrophils): nearly equivalent to that seen with thrombin or IL-8

RRPESKATNA TLDPR (RRPESKATNATLDPR) [SEQ ID NO.: 1, peptide representing residues 26-41 of the human PART receptor component]
maximal stimulation of neutrophil chemotaxis relative to thrombin or IL-8 (human neutrophils): nearly equivalent to that seen with thrombin or IL-8

SFFLRN [reference compound]
neutrophil chemotaxis (human neutrophils; concentrations up to 2000-fold higher than NTP): did not

SFLLRNPNDKYEPF [PART activating peptide fragment, synthetic peptide representing the tethered ligand region of PART, reference compound]
stimulation of c-fos and other G-protein initiated signals (fibroblasts [2]): nearly the same extent as proteolytically active thrombin | neutrophil chemotaxis (human neutrophils; concentrations up to 7.0 μM, FIG. 2): only marginally chemotactic

^125I-NTP-Y: NTP-Y radiolabeled with 125I by IODO-GEN catalyzed iodination (YRRPESKATNATLDPR; also: 125I radiolabel)
specific binding to fibroblasts (fibroblasts [3]): no detectable specific binding | binding to human neutrophils ([4]; 40 min at 37° C., FIG. 5): specified and saturable | NTP receptors per cell (saturation curve and Scatchard-like analysis) ([4]; human neutrophils, FIG. 5 insert): ~3000 receptors per cell | dose-response curve compared with NTP ([4]; iodinated peptide, iodination does not alter peptide activity): nearly identical to NTP
